Test: osmotic coefficient (dimensionless); mn = molality of the nth substance listed, in mol/kg
Settings: 323.15 K, 100 kPa, Liquid, Knauer K-7000 vapor pressure osmometer (VPO)

CCC[N+]1(C)CCCCC1.O=S(=O)([O-])C(F)(F)F [1-methyl-1-propylpiperidinium triflate] + CCC(C)O
Settings	osmotic coefficient
m1 = 0.0525	0.851
m1 = 0.081	0.769
m1 = 0.0996	0.701
m1 = 0.1561	0.608
m1 = 0.1983	0.572
m1 = 0.2451	0.528
m1 = 0.304	0.498
m1 = 0.3569	0.477
m1 = 0.4029	0.457
m1 = 0.498	0.432
m1 = 0.5936	0.419
m1 = 0.7108	0.405

CCC[N+]1(C)CCCCC1.O=S(=O)([O-])C(F)(F)F [1-methyl-1-propylpiperidinium triflate] + CC(C)O
Settings	osmotic coefficient
m1 = 0.0801	0.897
m1 = 0.1937	0.743
m1 = 0.3155	0.645
m1 = 0.4021	0.587
m1 = 0.5062	0.545
m1 = 0.5964	0.516
m1 = 0.7001	0.491
m1 = 0.7943	0.466
m1 = 0.9894	0.443
m1 = 1.268	0.422

CCC[N+]1(C)CCCCC1.O=S(=O)([O-])C(F)(F)F [1-methyl-1-propylpiperidinium triflate] + CCCCO
Settings	osmotic coefficient
m1 = 0.053	0.781
m1 = 0.0791	0.706
m1 = 0.0996	0.657
m1 = 0.1455	0.604
m1 = 0.2006	0.559
m1 = 0.25	0.519
m1 = 0.3019	0.491
m1 = 0.355	0.467
m1 = 0.4011	0.453
m1 = 0.4998	0.417
m1 = 0.5953	0.403
m1 = 0.7001	0.387
m1 = 0.78	0.379

CCC[N+]1(C)CCCCC1.O=S(=O)([O-])C(F)(F)F [1-methyl-1-propylpiperidinium triflate] + CCCCCO
Settings	osmotic coefficient
m1 = 0.0415	0.757
m1 = 0.0616	0.593
m1 = 0.0823	0.542
m1 = 0.1025	0.521
m1 = 0.1211	0.502
m1 = 0.1427	0.48
m1 = 0.1632	0.472
m1 = 0.1816	0.465
m1 = 0.2018	0.451
m1 = 0.2209	0.441
m1 = 0.2407	0.431
m1 = 0.2643	0.418

CCC[N+]1(C)CCCCC1.O=S(=O)([O-])C(F)(F)F [1-methyl-1-propylpiperidinium triflate] + CCCO
Settings	osmotic coefficient
m1 = 0.0866	0.825
m1 = 0.1046	0.769
m1 = 0.1966	0.661
m1 = 0.2936	0.585
m1 = 0.3928	0.521
m1 = 0.5005	0.483
m1 = 0.6023	0.468
m1 = 0.7009	0.452
m1 = 0.8047	0.438
m1 = 1.008	0.418
m1 = 1.195	0.398
m1 = 1.422	0.379

Reference: the NIST ThermoML archive (doi:10.1016/j.jct.2016.01.026)
